“Also recorded” adds a separate entry of the source. Square brackets hold non-standard residues; d marks the D form. Ends that are not written are not given here. Peptide text beside a SMILES is read from it. Phe(4-F) = N[C@@H](Cc1ccc(F)cc1)C(=O)O
Tested on: T cell lines against a natural (non-mutated) epitope (SSX-241-49)
Assay: Cross-reactivity and functional avidity: IFN-gamma from T cell lines against natural SSX-2 41-49 epitope;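 also: peptide analogs tested ex vivo with competent APCs, IFN-gamma in supernatant measured by ELISA, readouts include minimal triggering concentration, peak effect and concentration at peak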
Format: cell-based, HHD transgenic mice
Settings: for Cross-reactivity and fct avidity (native to analogs)*: IFN-gamma from T cell line raised against native SSX-2 41-49, native = 1, lower = more active

Compound | Cross-reactivity and fct avidity (native to analogs)* | cross-reactivity / IFN-gamma inducing activity relative to wild-type, in words (SSX-2 41-49 analogs, wild-type specific T cells)
FVSEKMFYV [SSX2 41-49 (K41F, A42V, I46M)] | >10 | 
K(D-Ala)SEKIFYV [SSX2 41-49 (A42(D-Ala))] | 10 | 
CC[C@H](C)[C@H](NC(=O)[C@H](CCCCN)NC(=O)[C@H](CCC(=O)O)NC(=O)[C@H](CO)NC(=O)[C@H](C)NC(=O)[C@@H](N)Cc1c[nH]c2ccccc12)C(=O)N[C@@H](Cc1ccccc1)C(=O)N[C@@H](Cc1ccc(O)cc1)C(=O)N[C@H](C(=O)O)C(C)C [SSX2 41-49 (K41W)] | >10 | 
K(D-Val)SEKIFYV [SSX2 41-49 (A42(D-Val))] | 3 | 
KASEKIFYV [SSX2 41-49-NH2] | >10 | 
CCC[C@H](NC(=O)[C@H](Cc1ccc(O)cc1)NC(=O)[C@H](Cc1ccccc1)NC(=O)[C@@H](NC(=O)[C@H](CCCCN)NC(=O)[C@H](CCC(=O)O)NC(=O)[C@H](CO)NC(=O)[C@@H](NC(=O)[C@@H](N)Cc1ccccc1)C(C)C)[C@@H](C)CC)C(=O)O [SSX2 41-49 (K41F, A42V, V49Nva)] | 0.1 | 
CC[C@H](C)[C@H](NC(=O)[C@H](CCCCN)NC(=O)[C@H](CCC(=O)O)NC(=O)[C@H](CO)NC(=O)[C@H](C)NC(=O)[C@@H](N)CCCCN)C(=O)N[C@@H](Cc1ccccc1)C(=O)N[C@@H](Cc1ccc(O)cc1)C(=O)N[C@H](C(=O)O)C(C)C [SSX2 41-49, reference compound] | 1 | 
KVSEKIFYV [SSX2 41-49-NH2 (A42V)] | 10 | 
CC[C@H](NC(=O)[C@@H](N)CCCCN)C(=O)N[C@@H](CO)C(=O)N[C@@H](CCC(=O)O)C(=O)N[C@@H](CCCCN)C(=O)N[C@H](C(=O)N[C@@H](Cc1ccccc1)C(=O)N[C@@H](Cc1ccc(O)cc1)C(=O)N[C@H](C(=O)O)C(C)C)[C@@H](C)CC [SSX2 41-49 (A42(Abu)), KAbuSEKIFYV] | 0.3 | 
CC[C@H](C)[C@H](NC(=O)[C@H](CCCCN)NC(=O)[C@H](CCC(=O)O)NC(=O)[C@H](CO)NC(=O)C(C)(C)NC(=O)[C@@H](N)CCCCN)C(=O)N[C@@H](Cc1ccccc1)C(=O)N[C@@H](Cc1ccc(O)cc1)C(=O)N[C@H](C(=O)O)C(C)C [SSX2 41-49 (A42(Aib)), KAibSEKIFYV] | 3 | 
CC[C@H](C)[C@H](NC(=O)[C@H](CCCCN)NC(=O)[C@H](CCC(=O)O)NC(=O)[C@H](CO)NC(=O)[C@H](CC(C)C)NC(=O)[C@@H](N)Cc1ccccc1)C(=O)N[C@@H](Cc1ccccc1)C(=O)N[C@@H](Cc1ccc(O)cc1)C(=O)N[C@H](C(=O)O)C(C)C [SSX2 41-49 (K41F, A42L)] | 0.3 | 
KVSEKIFYI [SSX2 41-49 (A42V, V491)] | 0.3 | 
CC[C@H](C)[C@H](NC(=O)[C@H](CCCCN)NC(=O)[C@H](CCC(=O)O)NC(=O)[C@H](CO)NC(=O)[C@H](CC(C)C)NC(=O)[C@H](N)CCCCN)C(=O)N[C@@H](Cc1ccccc1)C(=O)N[C@@H](Cc1ccc(O)cc1)C(=O)N[C@H](C(=O)O)C(C)C [SSX2 41-49 (K41(D-Lys), A42L)] | 10 | 
CC[C@H](C)[C@H](NC(=O)[C@H](CCCCN)NC(=O)[C@H](CCC(=O)O)NC(=O)[C@H](CO)NC(=O)[C@H](CCSC)NC(=O)[C@@H](N)Cc1ccccc1)C(=O)N[C@@H](Cc1ccccc1)C(=O)N[C@@H](Cc1ccc(O)cc1)C(=O)N[C@H](C(=O)O)C(C)C [SSX2 41-49 (K41F, A42M)] | 3 | 
CC[C@H](C)[C@H](NC(=O)[C@H](CCCCN)NC(=O)[C@@H](NC(=O)[C@H](CO)NC(=O)[C@@H](NC(=O)[C@@H](N)Cc1ccccc1)C(C)C)[C@@H](C)O)C(=O)N[C@@H](Cc1ccccc1)C(=O)N[C@@H](Cc1ccc(O)cc1)C(=O)N[C@H](C(=O)O)C(C)C [SSX2 41-49 (K41F, A42V, E44T)] | >10 | 
KASEKIFYVY [SSX-241-50, wild-type SSX-2 41-50 decamer peptide, reference compound] |  | significantly less active; also recorded: no immunological activity
CCC[C@H](NC(=O)[C@@H](N)CCCCN)C(=O)N[C@@H](CO)C(=O)N[C@@H](CCC(=O)O)C(=O)N[C@@H](CCCCN)C(=O)N[C@H](C(=O)N[C@@H](Cc1ccccc1)C(=O)N[C@@H](Cc1ccc(O)cc1)C(=O)N[C@H](C(=O)O)C(C)C)[C@@H](C)CC [SSX2 41-49 (A42(Nva)), KNvaSEKIFYV] | 0.1 | 
CC[C@H](C)[C@H](NC(=O)[C@H](CCCCN)NC(=O)[C@H](CCC(=O)O)NC(=O)[C@H](CO)NC(=O)[C@H](Cc1ccc2ccccc2c1)NC(=O)[C@@H](N)CCCCN)C(=O)N[C@@H](Cc1ccccc1)C(=O)N[C@@H](Cc1ccc(O)cc1)C(=O)N[C@H](C(=O)O)C(C)C [SSX2 41-49 (A42(Nal-2)), KNal-2SEKIFYV] | 3 | 

Compound | Cross-reactivity and fct avidity (native to analogs)* | cross-reactivity / IFN-gamma inducing activity relative to wild-type, in words (SSX-2 41-49 analogs, wild-type specific T cells)
CCCC[C@H](NC(=O)[C@H](Cc1ccc(O)cc1)NC(=O)[C@H](Cc1ccccc1)NC(=O)[C@@H](NC(=O)[C@H](CCCCN)NC(=O)[C@H](CCC(=O)O)NC(=O)[C@H](CO)NC(=O)[C@@H](NC(=O)[C@@H](N)Cc1ccccc1)C(C)C)[C@@H](C)CC)C(=O)O [SSX2 41-49 (K41F, A42V, V49Nle)] | >10 | 
CCCC[C@H](NC(=O)[C@@H](N)CCCCN)C(=O)N[C@@H](CO)C(=O)N[C@@H](CCC(=O)O)C(=O)N[C@@H](CCCCN)C(=O)N[C@H](C(=O)N[C@@H](Cc1ccccc1)C(=O)N[C@@H](Cc1ccc(O)cc1)C(=O)N[C@H](C(=O)O)C(C)C)[C@@H](C)CC [SSX2 41-49 (A42(Nle)), KNleSEKIFYV] | 0.1 | 
CC[C@H](C)[C@H](NC(=O)[C@H](CCCCN)NC(=O)[C@H](CCC(=O)O)NC(=O)[C@H](CO)NC(=O)[C@@H](NC(=O)[C@@H](N)Cc1c[nH]c2ccccc12)[C@@H](C)CC)C(=O)N[C@@H](Cc1ccccc1)C(=O)N[C@@H](Cc1ccc(O)cc1)C(=O)N[C@H](C(=O)O)C(C)C [SSX2 41-49 (K41W, A42I)] | 0.1 | 
CC[C@H](C)[C@H](NC(=O)[C@H](CCCCN)NC(=O)[C@H](CCC(=O)O)NC(=O)[C@H](CO)NC(=O)[C@H](C)NC(=O)[C@@H](N)Cc1ccc(F)cc1)C(=O)N[C@@H](Cc1ccccc1)C(=O)N[C@@H](Cc1ccc(O)cc1)C(=O)N[C@H](C(=O)O)C(C)C [SSX2 41-49 (K41(Phe-4F))] (H-[Phe(4-F)]ASEKIFYV-OH) | 3 | 
FVSEKIFY(Aib) [SSX2 41-49 (K41F, A42V, V49Aib)] | >10 | 
CC[C@H](C)[C@H](NC(=O)[C@H](CCCCN)NC(=O)[C@H](CCC(=O)O)NC(=O)[C@H](CO)NC(=O)[C@@H](NC(=O)[C@@H](N)Cc1ccccc1)C(C)C)C(=O)N[C@@H](Cc1ccccc1)C(=O)N[C@@H](Cc1ccc(O)cc1)C(=O)N[C@@H](CC(C)C)C(=O)O [SSX2 41-49 (K41F, A42V, V49L)] | >10 | 
CC[C@H](C)[C@H](NC(=O)[C@H](CCCCN)NC(=O)[C@H](CCC(=O)O)NC(=O)[C@H](CO)NC(=O)[C@@H](NC(=O)[C@@H](N)Cc1ccccc1)C(C)C)C(=O)N[C@@H](Cc1ccccc1)C(=O)N[C@@H](Cc1ccc(O)cc1)C(=O)N[C@@H](C)C(=O)O [SSX2 41-49 (K41F, A42V, V49A)] | 1 | 
FVSNKIFYV [SSX2 41-49 (K41F, A42V, E44N)] | >10 | 
FVSEKVFYV (T cell peptide epitope analog) [SSX2 41-49 (K41F, A42V, I46V)] | 1 | 
CC[C@H](C)[C@H](NC(=O)[C@H](CCCCN)NC(=O)[C@H](CCC(=O)O)NC(=O)[C@H](CO)NC(=O)[C@H](CC(C)C)NC(=O)[C@@H](N)CCCCN)C(=O)N[C@@H](Cc1ccccc1)C(=O)N[C@@H](Cc1ccc(O)cc1)C(=O)N[C@H](C(=O)O)C(C)C [SSX2 41-49 (A42L)] | 0.03 | 
CC[C@H](C)[C@H](NC(=O)[C@H](CCCCN)NC(=O)[C@H](CO)NC(=O)[C@H](CO)NC(=O)[C@@H](NC(=O)[C@@H](N)Cc1ccccc1)C(C)C)C(=O)N[C@@H](Cc1ccccc1)C(=O)N[C@@H](Cc1ccc(O)cc1)C(=O)N[C@H](C(=O)O)C(C)C [SSX2 41-49 (K41F, A42V, E44S)] | >10 | 
CC[C@H](C)[C@H](NC(=O)[C@H](CCCCN)NC(=O)[C@H](CCC(=O)O)NC(=O)[C@H](CO)NC(=O)[C@@H](NC(=O)[C@@H](N)Cc1ccccc1)C(C)C)C(=O)N[C@@H](Cc1ccccc1)C(=O)N[C@@H](Cc1ccc(O)cc1)C(=O)N(C)[C@H](C(=O)O)C(C)C [SSX2 41-49 (K41F, A42V, V49MeVal)] | 10 | 
FVSEKLFTA | >10 | 
KNal-1SEKIFYV [SSX2 41-49 (A42(Nal-1))] | >10 | 
KLSEKIFYV [SSX2 41-49-NH2 (A42L)] | 3 | 
CC[C@H](C)[C@H](NC(=O)[C@H](CCCCN)NC(=O)[C@H](CCC(=O)O)NC(=O)[C@H](CO)NC(=O)[C@@H](NC(=O)[C@H](N)CCCCN)C(C)C)C(=O)N[C@@H](Cc1ccccc1)C(=O)N[C@@H](Cc1ccc(O)cc1)C(=O)N[C@H](C(=O)O)C(C)C [SSX2 41-49 (K41(D-Lys), A42V)] | 10 | 
CC[C@H](NC(=O)[C@H](Cc1ccc(O)cc1)NC(=O)[C@H](Cc1ccccc1)NC(=O)[C@@H](NC(=O)[C@H](CCCCN)NC(=O)[C@H](CCC(=O)O)NC(=O)[C@H](CO)NC(=O)[C@@H](NC(=O)[C@@H](N)Cc1ccccc1)C(C)C)[C@@H](C)CC)C(=O)O [SSX2 41-49 (K41F, A42V, V49Abu)] | 1 | 
CC[C@H](C)[C@H](NC(=O)[C@H](CCCCN)NC(=O)[C@H](CCC(=O)O)NC(=O)[C@H](CO)NC(=O)[C@@H](NC(=O)[C@@H](N)Cc1ccc(O)cc1)[C@@H](C)CC)C(=O)N[C@@H](Cc1ccccc1)C(=O)N[C@@H](Cc1ccc(O)cc1)C(=O)N[C@H](C(=O)O)C(C)C [SSX2 41-49 (K41Y, A42I)] | 1 | 

Source: patent publication US7605227B2, “Melanoma antigen peptide analogues” (MannKind Corporation, priority 2005, dated 2009)
